Assay results taken from patent US9738604B2, “Ethynylbenzene derivatives” (Duke University, priority 2010, dated 2017).

Tests used:
Format in all cases: cell-based
E. coli W3110PA = assay: microbe, parasite or virus in culture; conditions: E. coli with lpxC of P. aeruginosa; 22 hours at 37° C., MTT
E. coli W3110 = assay: microbe, parasite or virus in culture
E. coli W3110RL = assay: microbe, parasite or virus in culture; conditions: E. coli with lpxC of R. leguminosarum; 22 hours at 37° C., MTT
P. aeruginosa (PAO1) = assay: MIC, P. aeruginosa; conditions: P. aeruginosa PAO1; 22 hours at 37° C., MTT

Compound	MIC E. coli W3110PA (E. coli W3110PA)	MIC E. coli W3110 (E. coli W3110)	MIC E. coli W3110RL (E. coli W3110RL)	MIC P. aeruginosa (PAO1) (P. aeruginosa (PAO1))
CC(C)[C@H](NC(=O)c1ccc(C#CC#Cc2ccc(N)cc2)cc1)C(=O)NO [CPD-022, (2S)-2-({4′-[4′-(4′-aminophenyl)buta-1′,3′-diyn-1′-yl]phenyl}formamido)-N-hydroxy-3-methylbutanamide]	A (<1 μg/mL)	A (key: A: <1 μg/mL; B: 1-10 μg/mL; C: 11-50 μg/mL; D: 51-100 μg/mL; E: >100 μg/mL)	D (51-100 μg/mL)	B (1-10 μg/mL)
CC[C@@H](C)[C@H](NC(=O)c1ccc(C#CC#Cc2ccc(N)cc2)cc1)C(=O)NO [CPD-023, (2S,3R)-2-({4′-[4′-(4′-aminophenyl)buta-1′,3′-diyn-1-yl]phenyl}formamido)-N-hydroxy-3-methylpentanamide]	B (1-10 μg/mL)	A (key: A: <1 μg/mL; B: 1-10 μg/mL; C: 11-50 μg/mL; D: 51-100 μg/mL; E: >100 μg/mL)	C (11-50 μg/mL)	D (51-100 μg/mL)
Nc1ccc(C#CC#Cc2ccc(C(=O)NCC(=O)NO)cc2)cc1 [CPD-024, 2-({4′-[4′-(4′-aminophenyl)buta-1′,3′-diyn-1′-yl]phenyl}formamido)-N-hydroxyacetamide]	C (11-50 μg/mL)	A (key: A: <1 μg/mL; B: 1-10 μg/mL; C: 11-50 μg/mL; D: 51-100 μg/mL; E: >100 μg/mL)	E (>100 μg/mL)	D (51-100 μg/mL)
Nc1ccc(C#CC#Cc2ccc(C(=O)N[C@@H](Cc3ccccc3)C(=O)NO)cc2)cc1 [CPD-025, (2S)-2-({4′-[4′-(4′-aminophenyl)buta-1′,3′-diyn-1′-yl]phenyl}formamido)-N-hydroxy-3-phenylpropanamide]	E (>100 μg/mL)	B (key: A: <1 μg/mL; B: 1-10 μg/mL; C: 11-50 μg/mL; D: 51-100 μg/mL; E: >100 μg/mL)	E (>100 μg/mL)	D (51-100 μg/mL)
CC(C)C[C@H](NC(=O)c1ccc(C#CC#Cc2ccc(N)cc2)cc1)C(=O)NO [CPD-026, (2S)-2-({4′-[4′-(4′-aminophenyl)buta-1′,3′-diyn-1-yl]phenyl}formamido)-N-hydroxy-4-methylpentanamide]	E (>100 μg/mL)	B (key: A: <1 μg/mL; B: 1-10 μg/mL; C: 11-50 μg/mL; D: 51-100 μg/mL; E: >100 μg/mL)	E (>100 μg/mL)	E (>100 μg/mL)
Nc1ccc(C#CC#Cc2ccc(C(=O)N[C@@H](CO)C(=O)NO)cc2)cc1 [CPD-027, (2S)-2-({4′-[4′-(4′-aminophenyl)buta-1′,3′-diyn-1′-yl]phenyl}formamido)-N,3-dihydroxypropanamide]	B (1-10 μg/mL)	A (key: A: <1 μg/mL; B: 1-10 μg/mL; C: 11-50 μg/mL; D: 51-100 μg/mL; E: >100 μg/mL)	C (11-50 μg/mL)	B (1-10 μg/mL)
CSCC[C@H](NC(=O)c1ccc(C#CC#Cc2ccc(N)cc2)cc1)C(=O)NO [CPD-028, (2S)-2-({4′-(4′-(4′-aminophenyl)buta-1′,3′-diyn-1-yl]phenyl}formamido)-N-hydroxy-4-(methylsulfanyl)butanamide]	E (>100 μg/mL)	A (key: A: <1 μg/mL; B: 1-10 μg/mL; C: 11-50 μg/mL; D: 51-100 μg/mL; E: >100 μg/mL)	E (>100 μg/mL)	E (>100 μg/mL)
